According to publication PMC10544029, “Design, Synthesis, and Application of Fluorescent Ligands Targeting the Intracellular Allosteric Binding Site of the CXC Chemokine Receptor 2” (Journal of Medicinal Chemistry, 2023):

Columns and labels:
[1] = Chemical stability on purification and isolation; assay type: physicochemical; settings: purification by normal and reverse-phase chromatography
CXCR1 = molecular target: T1, CXCR1 (Homo sapiens, UniProt P25024); experiment: CXCR1-NanoLuc NanoBRET saturation binding in membranes; settings: result in words
T1 construct: expressed in transfected cells; membranes
T1 sequence (P25024 1-350): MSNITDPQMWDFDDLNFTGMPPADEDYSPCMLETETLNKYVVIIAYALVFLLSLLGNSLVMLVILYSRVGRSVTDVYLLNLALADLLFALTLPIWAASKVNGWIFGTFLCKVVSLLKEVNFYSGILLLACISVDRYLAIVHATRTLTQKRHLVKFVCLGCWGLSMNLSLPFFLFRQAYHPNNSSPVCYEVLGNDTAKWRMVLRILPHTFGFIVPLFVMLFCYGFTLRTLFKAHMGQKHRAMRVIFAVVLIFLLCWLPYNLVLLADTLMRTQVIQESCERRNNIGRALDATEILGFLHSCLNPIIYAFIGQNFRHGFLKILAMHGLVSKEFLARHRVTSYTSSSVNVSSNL
Description: NanoBRET assays were carried out in OptiPlate-384 white well microplates (product number: 6007290, PerkinElmer LAS Ltd., UK) and used 25 mM HEPES, 1% DMSO, 0.1 mg/mL Saponin, 0.2 mg Pluronic acid F127, 1 mM MgCl2 and 0.1% BSA (pH 7.4) assay buffer. Both saturation and competition assays employed 1 μg/well HEK 293 SNAP-CXCR2-NanoLuc or SNAP-CXCR1-NanoLuc cell membranes for characterization of fluorescent ligand binding and employed 100 nM or 10 μM R-navarixin (2) to define non-specific binding (NSB). […] Membranes were incubated with furimazine at a 1/660 dilution for 5 min prior to addition to the assay plate, allowing for equilibration of luminescence output. NanoBRET was monitored every 15 s for 60 min at 37 °C measuring Nanoluciferase output (450 nm) and BODIPY 630–650 output (630 nm [610-LP filter]), generating a BRET ratio (630 nm/450 nm), using a BMG PHERAstar FS (BMG Labtech). Collected data was converted to specific binding measurements through subtraction of NSB data and analyzed by endpoint saturation analysis, allowing determination of ligand dissociation constant (KD) through [drawing 1] 1

[2] = test system: SNAP-tagged CXCR2-tsNanoLuc HEK293; experiment: Live cell imaging of fluorescent ligand binding to SNAP-tagged CXCR2-tsNanoLuc HEK293; assay type: cell-based, human; settings: 1 μM 11a, 10 min at 37 °C, specific, displaced by 10 μM 2
Description: HEK 293 cells expressing SNAP-CXCR2-tsNanoLuc were seeded on black, clear bottom, poly-D-lysine-coated 96-well plates (Greiner 655097) at a density of 30,000 cells/well and allowed to grow overnight. Post-incubation, growth media were replaced with Hepes balances salt solution supplemented with 0.1% BSA (HBSS +0.1% BSA), 0.1 μM SNAP-surface AF488, 2 μg/mL Hoechst 33342 nuclear stain (H33342), and either HBSS +0.1% BSA or 10 μM (R)-navarixin (2).

Row | Compound | chemical stability [1] | CXCR1 specific binding (CXCR1) | fluorescent labelling of cells [2]
1 | CC[C@@H](Nc1c(Nc2cccc(C(=O)N(C)CCNC(=O)OCC3c4ccccc4-c4ccccc43)c2O)c(=O)c1=O)c1ccc(C)o1 [10b, (9H-Fluoren-9-yl)methyl(R)-(2-(2-hydroxy-N-methyl-3-((2-((1-(5-methylfuran-2-yl)propyl)amino)-3,4-dioxocyclobut-1-en-1-yl)amino)benzamido)ethyl)carbamate] | chemically unstable |  | 
2 | CC[C@@H](Nc1c(Nc2cccc(C(=O)NCCNC(=O)CCCCCNC(=O)COc3ccc(/C=C/C4=[N+]5C(=Cc6ccc(-c7cccs7)n6[B-]5(F)F)C=C4)cc3)c2O)c(=O)c1=O)c1ccc(C)o1 [11a, (R,E)-N-(2-(6-(2-(4-(2-(5,5-Difluoro-7-(thiophen-2-yl)-5H-4λ4,5λ4-dipyrrolo[1,2-c:2’,1’-f][1,3,2]diazaborinin-3-yl)vinyl)phenoxy)acetamido)hexanamido)ethyl)-2-hydroxy-3-((2-((1-(5-methylfuran-2-yl)propyl)amino)-3,4-dioxocyclobut-1-en-1-yl)amino)benzamide] |  | no CXCR1 specific binding | both cell surface and intracellular endosomal fluorescent labelling
3 | CC[C@@H](Nc1c(Nc2cccc(C(=O)NCCNC(=O)CNC(=O)CCCCCNC(=O)COc3ccc(/C=C/C4=[N+]5C(=Cc6ccc(-c7cccs7)n6[B-]5(F)F)C=C4)cc3)c2O)c(=O)c1=O)c1ccc(C)o1 [11c, (R,E)-N-(2-(2-(6-(2-(4-(2-(5,5-Difluoro-7-(thiophen-2-yl)-5H-4λ4,5λ4-dipyrrolo[1,2-c:2′,1′-f][1,3,2]diazaborinin-3-yl)vinyl)phenoxy)acetamido)hexanamido)acetamido)ethyl)-2-hydroxy-3-((2-((1-(5-methylfuran-2-yl)propyl)amino)-3,4-dioxocyclobut-1-en-1-yl)amino)benzamide] |  | no CXCR1 specific binding | 
4 | CC[C@@H](Nc1c(Nc2cccc(C(=O)NCCNC(=O)CCNC(=O)CCCCCNC(=O)COc3ccc(/C=C/C4=[N+]5C(=Cc6ccc(-c7cccs7)n6[B-]5(F)F)C=C4)cc3)c2O)c(=O)c1=O)c1ccc(C)o1 [11e, (R,E)-N-(2-(3-(6-(2-(4-(2-(5,5-Difluoro-7-(thiophen-2-yl)-5H-4λ4,5λ4-dipyrrolo[1,2-c:2′,1′-f][1,3,2]diazaborinin-3-yl)vinyl)phenoxy)acetamido)hexanamido)propanamido)ethyl)-2-hydroxy-3-((2-((1-(5-methylfuran-2-yl)propyl)amino)-3,4-dioxocyclobut-1-en-1-yl)amino)benzamide] |  | no CXCR1 specific binding | 
